Measured values: patent publication EP4578855A1, “PROLYL HYDROXYLASE INHIBITOR AND USE THEREOF” (Suzhong Pharmaceutical Group Co., Ltd., priority 2022, dated 2024)

Tested on: human hepatocarcinoma cell line Hep3B
Assay: In-vitro erythropoietin (EPO)-inducing activity experiment (EPO ELISA, OD450)
Type: cell-based
Conditions: Homo sapiens, Hep3B, 24 h, Hep3B cells, incubated 24 hours at 37°C
Method: In-vitro erythropoietin (EPO)-inducing activities of the compounds in Embodiments 10 to 12 were evaluated by using a human hepatocarcinoma cell line Hep3B (ATCC). Hep3B cells were cultured in an EMEM medium (Eagle's Minimum Essential Medium) at 37°C in the presence of 10% fetal bovine serum (FBS). Experimental steps were as follows: • (1) Cell preparation: the cells were inoculated in a 96-well plate, and cell plating was carried out according to an amount of 100 µL per well based on 2*10~4 per well. • (2) Preparation of compound concentration gradient: 100 µM, 20 µM, 2-parallel well detection. A solution with 200 times final concentration was prepared in a 96-well plate, the compound was diluted 200/3 times by using a cell culture medium, and then 50 µL of the compound was sucked for drug administration to the cells. 50 µL of DMSO-containing culture solution was added into a negative control well to make a final concentration contain 5 ‰ DMSO, and 50 µL of positive compound with the highest concentration was added into a positive control well to incubate the cells at 37°C for 24 hours. • (3) The reaction plate was washed twice with 1X Wash Buffer according to about 400 µL per well. • (4) 100 µL of diluted standard (comprising a standard blank control) was added into an appropriate well. • (5) 50 µL of sample and 50 µL of Sample Diluent were added into a sample well. • (6) 50 µL of 1X Biotin Conjugated Antibody were added into all wells to incubate the cells at room temperature for 1 hour. • (7) The reaction plate was washed with 1X Wash Buffer for 6 times according to about 400 µL per well. • (8) 100 µL of 1X Streptavidin-HRP was added in to each well to incubate the cells at room temperature for 15 minutes. • (9) The reaction plate was washed with 1X Wash Buffer for 6 times according to about 400 µL per well. • (10) 100 µL of TMB Substrate Solution was added into each well to incubate the cells at room temperature for 10 minutes. • (11) 100 µL of Stop Solution was added into each well. • (12) OD450 was read by EnSight.
The EPO-inducing activities of the compounds were expressed as the concentration for 50% of maximal effect (EC50).

Q: For `O=C(O)CNC(=O)c1c(O)cc(C2CCc3ccccc3C2)n2ncnc12` (single isomer, unassigned) [Compound in Embodiment 13, [(7-hydroxy-5-(1,2,3,4-tetrahydronaphthalene-2-yl)-[1,2,4]triazolo[1,5-a]pyridine-8-carbonyl)amino]acetic acid], which EC50 is on record?
A: Its EC50 is 5.05 µM.
